Data on 24 compounds can be found in ChEMBL document CHEMBL5634112, “Synthesis and biological evaluation of fluoroquinolones containing a pyridoxine derivatives moiety” (Eur J Med Chem, 2023).

The structures appear in SMILES notation.

One assay relates to Escherichia coli. Put plainly: Antibacterial activity against Escherichia coli ATCC 25922 assessed as reduction in microbial growth incubated for 24 hrs by broth microdilution method. The class given is functional. On the technique in general: In broth dilution the organism is exposed to a series of concentrations in liquid medium.
Another assay has as its system Salmonella typhimurium. The assay is described as follows: Antibacterial activity against Salmonella typhimurium TA100 assessed as reduction in microbial growth incubated for 24 hrs by broth microdilution method. The class given is functional, Salmonella enterica subsp. enterica serovar Typhimurium. Conditions: Salmonella enterica.
Another assay has as its system Bacillus subtilis. The assay is described as follows: Antibacterial activity against Bacillus subtilis 168 assessed as reduction in microbial growth incubated for 24 hrs by broth microdilution method. The class given is functional.
In assay [1] the test system is Staphylococcus epidermidis. The assay is described as follows: Antibacterial activity against clinical isolate Staphylococcus epidermidis assessed as reduction in microbial growth incubated for 24 hrs by broth microdilution method. The class given is functional.
For another assay, the system named is Staphylococcus aureus. Put plainly: Antibacterial activity against methicillin sensitive Staphylococcus aureus ATCC 29213 assessed as reduction in microbial growth incubated for 24 hrs by broth microdilution method. The class given is functional.
A further assay has as its system Micrococcus luteus. The assay is described as follows: Antibacterial activity against clinical isolate Micrococcus luteus assessed as reduction in microbial growth incubated for 24 hrs by broth microdilution method. The class given is functional.
The subject of a further assay is Pseudomonas aeruginosa. Put plainly: Antibacterial activity against Pseudomonas aeruginosa ATCC 27853 assessed as reduction in microbial growth incubated for 24 hrs by broth microdilution method. The class given is functional.

As usually defined, the MIC is the lowest concentration found to suppress growth. As for `CCn1cc(C(=O)O)c(=O)c2cc(F)c(N3CCN(Cc4cnc(C)c5c4COCO5)C(C)C3)c(F)c21.Cl` (stereo not drawn), the MIC was determined as 16 µg/mL in the assay on Escherichia coli; 4 µg/mL in the assay on Salmonella typhimurium; 4 µg/mL in the assay with Bacillus subtilis; 16 µg/mL in assay [1]; 8 µg/mL with Staphylococcus aureus; 32 µg/mL in the assay with Micrococcus luteus. Moreover, the MIC with Pseudomonas aeruginosa was > 64 µg/mL.
Regarding `CCn1cc(C(=O)O)c(=O)c2cc(F)c(N3CCN(Cc4c(CO)nc(C)c(O)c4CO)CC3)cc21.Cl`, the MIC in the assay with Escherichia coli is 8 µg/mL; in the assay on Salmonella typhimurium, 4 µg/mL; with Bacillus subtilis, 8 µg/mL; in assay [1] it was 16 µg/mL; in the assay on Staphylococcus aureus, 8 µg/mL; in the assay with Micrococcus luteus, 16 µg/mL. In addition, the MIC in the assay with Pseudomonas aeruginosa is > 64 µg/mL.
In the case of `CCCC1OCc2c(CN3CCN(c4cc5c(cc4F)c(=O)c(C(=O)O)cn5C4CC4)CC3)cnc(C)c2O1` (stereo not drawn), the MIC in the assay on Escherichia coli was > 64 µg/mL; with Salmonella typhimurium it was 4 µg/mL; in the assay on Bacillus subtilis, 2 µg/mL; in assay [1] it was 64 µg/mL; with Staphylococcus aureus, 64 µg/mL; with Micrococcus luteus, 64 µg/mL. Moreover, the MIC with Pseudomonas aeruginosa was > 64 µg/mL.
As for `CCn1cc(C(=O)O)c(=O)c2cc(F)c(N3CCN(Cc4cnc(C)c(O)c4CO)CC3)cc21.Cl`, the MIC was 64 µg/mL with Escherichia coli; 4 µg/mL in the assay on Salmonella typhimurium; 4 µg/mL in the assay on Bacillus subtilis; 32 µg/mL in assay [1]; 16 µg/mL in the assay with Staphylococcus aureus; 32 µg/mL in the assay with Micrococcus luteus. The MIC in the assay with Pseudomonas aeruginosa is > 64 µg/mL.
Turning to `Cc1ncc(CN2CCN(c3cc4c(cc3F)c(=O)c(C(=O)O)cn4C3CC3)CC2)c2c1OC(C)OC2.Cl` (stereo not drawn), the MIC in the assay on Escherichia coli was > 64 µg/mL; in the assay on Salmonella typhimurium it was 4 µg/mL; with Bacillus subtilis, 2 µg/mL; in assay [1], 8 µg/mL; with Staphylococcus aureus, 8 µg/mL; in the assay on Micrococcus luteus, 8 µg/mL. Further, the MIC in the assay with Pseudomonas aeruginosa was > 64 µg/mL.
Turning to `CCCC1OCc2c(CN3CCN(c4c(F)cc5c(=O)c(C(=O)O)cn(CC)c5c4F)CC3C)cnc(C)c2O1` (stereo not drawn), the MIC in the assay on Escherichia coli was > 64 µg/mL; in the assay with Salmonella typhimurium it was 2 µg/mL; in the assay with Bacillus subtilis, 2 µg/mL; in assay [1], 8 µg/mL; in the assay on Staphylococcus aureus it was 16 µg/mL; in the assay with Micrococcus luteus it was 16 µg/mL. The MIC in the assay on Pseudomonas aeruginosa is > 64 µg/mL.
Consider `CCn1cc(C(=O)O)c(=O)c2cc(F)c(N3CCN(Cc4cnc(C)c5c4COC(C)O5)C(C)C3)c(F)c21` (stereo not drawn), for which the MIC is > 64 µg/mL in the assay with Escherichia coli; 2 µg/mL with Salmonella typhimurium; 2 µg/mL with Bacillus subtilis; 8 µg/mL in assay [1]; 2 µg/mL in the assay with Staphylococcus aureus; > 64 µg/mL in the assay with Micrococcus luteus. For the same compound, the MIC with Pseudomonas aeruginosa is 16 µg/mL.
As to `CCn1cc(C(=O)O)c(=O)c2cc(F)c(N3CCN(Cc4nc(C)c5c(c4CO)COC(C)(C)O5)C(C)C3)c(F)c21` (stereo not drawn), the MIC in the assay on Escherichia coli is 8 µg/mL; in the assay with Salmonella typhimurium it was 2 µg/mL; in the assay with Bacillus subtilis, 4 µg/mL; in assay [1], 16 µg/mL; in the assay on Staphylococcus aureus, 64 µg/mL; in the assay on Micrococcus luteus it was > 64 µg/mL. In addition, the MIC in the assay with Pseudomonas aeruginosa is > 64 µg/mL.
With `CCCCCCCCC1OCc2c(CN3CCN(c4cc5c(cc4F)c(=O)c(C(=O)O)cn5CC)CC3)cnc(C)c2O1` (stereo not drawn), the MIC was > 64 µg/mL in the assay on Escherichia coli; > 64 µg/mL with Salmonella typhimurium; 64 µg/mL in the assay on Bacillus subtilis; > 64 µg/mL in assay [1]; > 64 µg/mL with Staphylococcus aureus; > 64 µg/mL in the assay with Micrococcus luteus. Also, in the assay with Pseudomonas aeruginosa, the MIC was > 64 µg/mL.
For `CCn1cc(C(=O)O)c(=O)c2cc(F)c(N3CCN(Cc4cnc(C)c5c4COC(C)(C)O5)C(C)C3)c(F)c21.Cl` (stereo not drawn), the MIC in the assay with Escherichia coli was > 64 µg/mL; in the assay with Salmonella typhimurium, 2 µg/mL; in the assay on Bacillus subtilis it was 2 µg/mL; in assay [1] it was 64 µg/mL; in the assay on Staphylococcus aureus, 16 µg/mL; with Micrococcus luteus, 8 µg/mL. For the same compound, in the assay with Pseudomonas aeruginosa, the MIC is > 64 µg/mL.
With `CCn1cc(C(=O)O)c(=O)c2cc(F)c(N3CCN(Cc4cnc(C)c5c4COC(C)(C)O5)CC3)cc21`, the MIC in the assay on Escherichia coli was 64 µg/mL; in the assay with Salmonella typhimurium it was > 64 µg/mL; in the assay on Bacillus subtilis, 64 µg/mL; in assay [1], > 64 µg/mL; in the assay on Staphylococcus aureus, > 64 µg/mL; in the assay on Micrococcus luteus, > 64 µg/mL. Further, in the assay on Pseudomonas aeruginosa, the MIC is > 64 µg/mL.
On to `CCn1cc(C(=O)O)c(=O)c2cc(F)c(N3CCN(Cc4nc(C)c(O)c(CO)c4CO)C(C)C3)c(F)c21.Cl` (stereo not drawn), for which the MIC worked out at 2 µg/mL in the assay on Escherichia coli; 2 µg/mL in the assay on Salmonella typhimurium; 2 µg/mL in the assay on Bacillus subtilis; 64 µg/mL in assay [1]; 2 µg/mL with Staphylococcus aureus; 64 µg/mL in the assay with Micrococcus luteus. Besides, the MIC in the assay on Pseudomonas aeruginosa is > 64 µg/mL.
For `Cc1ncc(CN2CCN(c3cc4c(cc3F)c(=O)c(C(=O)O)cn4C3CC3)CC2)c2c1OC(C)(C)OC2.Cl`, the MIC in the assay with Escherichia coli turned out to be 64 µg/mL; in the assay on Salmonella typhimurium, 4 µg/mL; in the assay on Bacillus subtilis, 2 µg/mL; in assay [1], 16 µg/mL; with Staphylococcus aureus, 32 µg/mL; with Micrococcus luteus, 32 µg/mL. Further, the MIC in the assay on Pseudomonas aeruginosa is > 64 µg/mL.
In the case of `CCCCCCCCC1OCc2c(CN3CCN(c4c(F)cc5c(=O)c(C(=O)O)cn(CC)c5c4F)CC3C)cnc(C)c2O1` (stereo not drawn), the MIC (in the assay on Escherichia coli; in the assay with Salmonella typhimurium; in the assay with Bacillus subtilis; in assay [1]; in the assay on Staphylococcus aureus; with Micrococcus luteus) was > 64 µg/mL in each case. In addition, the MIC with Pseudomonas aeruginosa was > 64 µg/mL.
As to `CCCC1OCc2c(CN3CCN(c4cc5c(cc4F)c(=O)c(C(=O)O)cn5CC)CC3)cnc(C)c2O1` (stereo not drawn), the MIC is > 64 µg/mL with Escherichia coli; 2 µg/mL in the assay with Salmonella typhimurium; 2 µg/mL in the assay on Bacillus subtilis; 32 µg/mL in assay [1]; 16 µg/mL in the assay with Staphylococcus aureus; 64 µg/mL with Micrococcus luteus. Also, in the assay with Pseudomonas aeruginosa, the MIC was > 64 µg/mL.
For `COc1c(N2C[C@@H]3CCCN(Cc4cnc(C)c5c4COC(C)O5)[C@@H]3C2)c(F)cc2c(=O)c(C(=O)O)cn(C3CC3)c12` (stereo partly drawn), the MIC in the assay on Escherichia coli came out at 16 µg/mL; in the assay on Salmonella typhimurium it was 4 µg/mL; in the assay on Bacillus subtilis, 1 µg/mL; in assay [1], 4 µg/mL; in the assay with Staphylococcus aureus, 1 µg/mL; in the assay with Micrococcus luteus, 4 µg/mL. Besides, the MIC in the assay with Pseudomonas aeruginosa was > 64 µg/mL.
Turning to `CCn1cc(C(=O)O)c(=O)c2cc(F)c(N3CCN(Cc4cnc(C)c5c4COC(C)O5)CC3)cc21` (stereo not drawn), the MIC in the assay with Escherichia coli was > 64 µg/mL; in the assay with Salmonella typhimurium it was 16 µg/mL; in the assay on Bacillus subtilis it was 8 µg/mL; in assay [1], 32 µg/mL; in the assay with Staphylococcus aureus it was 32 µg/mL; in the assay with Micrococcus luteus, 64 µg/mL. For the same compound, the MIC in the assay on Pseudomonas aeruginosa was > 64 µg/mL.
Turning to `CCn1cc(C(=O)O)c(=O)c2cc(F)c(N3CCN(Cc4cnc(C)c(O)c4C)CC3)cc21.Cl`, the MIC in the assay with Escherichia coli is 2 µg/mL; with Salmonella typhimurium, 64 µg/mL; with Bacillus subtilis it was 2 µg/mL; in assay [1] it was 16 µg/mL; in the assay with Staphylococcus aureus it was 4 µg/mL; in the assay on Micrococcus luteus, 8 µg/mL. Also, in the assay with Pseudomonas aeruginosa, the MIC was > 64 µg/mL.
`CCn1cc(C(=O)O)c(=O)c2cc(F)c(N3CCN(Cc4nc(C)c(O)c(CO)c4CO)CC3)cc21.Cl`: the MIC was > 64 µg/mL with Escherichia coli; 16 µg/mL in the assay on Salmonella typhimurium; 4 µg/mL in the assay with Bacillus subtilis; 32 µg/mL in assay [1]; 8 µg/mL in the assay on Staphylococcus aureus; 8 µg/mL in the assay on Micrococcus luteus. Besides, in the assay on Pseudomonas aeruginosa, the MIC was > 64 µg/mL.
On to `Cc1nc(CN2CCN(c3cc4c(cc3F)c(=O)c(C(=O)O)cn4C3CC3)CC2)c(CO)c2c1OC(C)(C)OC2`, for which the MIC stood at 64 µg/mL in the assay with Escherichia coli; 4 µg/mL with Salmonella typhimurium; 2 µg/mL with Bacillus subtilis; 8 µg/mL in assay [1]; 8 µg/mL in the assay on Staphylococcus aureus; 8 µg/mL in the assay with Micrococcus luteus. Further, the MIC in the assay with Pseudomonas aeruginosa was > 64 µg/mL.
`CCn1cc(C(=O)O)c(=O)c2cc(F)c(N3CCN(Cc4cnc(C)c(O)c4C)C(C)C3)c(F)c21.Cl` (stereo not drawn): the MIC with Escherichia coli was 2 µg/mL; with Salmonella typhimurium it was 2 µg/mL; with Bacillus subtilis, 1 µg/mL; in assay [1], > 64 µg/mL; in the assay with Staphylococcus aureus it was 2 µg/mL; in the assay on Micrococcus luteus, 32 µg/mL. For the same compound, the MIC in the assay on Pseudomonas aeruginosa was > 64 µg/mL.
As for `CCCCCCCCC1OCc2c(CN3CCC[C@H]4CN(c5c(F)cc6c(=O)c(C(=O)O)cn(C7CC7)c6c5OC)C[C@H]43)cnc(C)c2O1` (stereo partly drawn), the MIC in the assay on Escherichia coli is > 64 µg/mL; in the assay with Salmonella typhimurium it was 16 µg/mL; in the assay with Bacillus subtilis it was 8 µg/mL; in assay [1], 32 µg/mL; with Staphylococcus aureus, 16 µg/mL; in the assay with Micrococcus luteus it was 16 µg/mL. In the assay on Pseudomonas aeruginosa, the MIC is > 64 µg/mL.
Regarding `Cc1nc(CN2CCN(c3cc4c(cc3F)c(=O)c(C(=O)O)cn4C3CC3)CC2)c(CO)c(CO)c1O.Cl`, the MIC amounted to 64 µg/mL in the assay with Escherichia coli; 4 µg/mL in the assay on Salmonella typhimurium; 2 µg/mL in the assay with Bacillus subtilis; 32 µg/mL in assay [1]; 64 µg/mL in the assay with Staphylococcus aureus; 32 µg/mL in the assay with Micrococcus luteus. For the same compound, the MIC in the assay on Pseudomonas aeruginosa was > 64 µg/mL.
Turning to `CCCCCCCCC1OCc2c(CN3CCN(c4cc5c(cc4F)c(=O)c(C(=O)O)cn5C4CC4)CC3)cnc(C)c2O1` (stereo not drawn), the MIC with Escherichia coli is > 64 µg/mL; in the assay with Salmonella typhimurium it was 4 µg/mL; with Bacillus subtilis, 2 µg/mL; in assay [1] it was 64 µg/mL; in the assay with Staphylococcus aureus it was 32 µg/mL; in the assay on Micrococcus luteus it was 64 µg/mL. Further, in the assay with Pseudomonas aeruginosa, the MIC is > 64 µg/mL.
